Measurements as given in ChEMBL document CHEMBL5053508, “Optimization of Beclin 1-Targeting Stapled Peptides by Staple Scanning Leads to Enhanced Antiproliferative Potency in Cancer Cells” (J Med Chem, 2021).
pIC50, pKd: −log10 of the molar value. Calls of active or inactive are those of the source. The calls are words filed in the database; no cut-off is given here.

How the values were obtained:
Beclin-1 = Beclin-1 (Homo sapiens, UniProt Q14457); assay: Binding affinity to Beclin 1 coiled coil domain (unknown origin) by isothermal titration calorimetry assay
SK-BR-3 [1] = assay: Antiproliferative activity against human SK-BR-3 cells assessed as reduction of cell growth measured after 24 hrs by trypan blue exclusion assay; conditions: SK-BR-3, 24 h
HEK-293T = assay: Cytotoxicity against HEK293T cells assessed as reduction in cell viability at 10 to 20 uM measured after 24 hrs by trypan blue exclusion assay; assay type: cell-based; conditions: human, dose 10-20 µM
SK-BR-3 [2] = assay: Antiproliferative activity against human SK-BR-3 cells assessed as reduction in cell growth incubated for 5 days by trypan blue exclusion assay; assay type: functional, cell-based; conditions: time 5.0 day
SK-BR-3 [3] = assay: Induction of apoptosis in human SK-BR-3 cells assessed as increase in cleaved caspase-3 expression at 0.15 uM incubated for 48 hrs by western blot analysis; assay type: functional, cell-based
SK-BR-3 [4] = assay: Induction of apoptosis in human SK-BR-3 cells assessed as increase in cleaved PARP expression at 0.15 uM incubated for 48 hrs by western blot analysis; assay type: functional, cell-based

Chain of Beclin-1 (Q14457 whole entry, the tested form may be a part): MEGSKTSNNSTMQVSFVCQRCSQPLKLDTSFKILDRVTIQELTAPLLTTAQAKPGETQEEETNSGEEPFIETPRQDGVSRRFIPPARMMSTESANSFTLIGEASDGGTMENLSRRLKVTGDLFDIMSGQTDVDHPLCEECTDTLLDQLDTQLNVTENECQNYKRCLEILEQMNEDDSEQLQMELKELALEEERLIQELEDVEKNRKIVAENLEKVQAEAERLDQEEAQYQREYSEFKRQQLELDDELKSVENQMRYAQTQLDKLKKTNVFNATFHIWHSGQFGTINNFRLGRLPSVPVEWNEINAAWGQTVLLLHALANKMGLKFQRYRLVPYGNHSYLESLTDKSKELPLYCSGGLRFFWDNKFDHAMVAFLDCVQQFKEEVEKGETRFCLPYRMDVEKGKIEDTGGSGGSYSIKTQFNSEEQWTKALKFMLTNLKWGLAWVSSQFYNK

| SMILES | Activity (Beclin-1) | pKd (Beclin-1) | other results |
| --- | --- | --- | --- |
| CC[C@H](C)[C@H](NC(=O)[C@H](Cc1ccccc1)NC(=O)[C@H](CCCNC(=N)N)NC(=O)[C@H](CCCNC(=N)N)NC(=O)[C@H](CCCNC(=N)N)NC(=O)[C@H](CCCNC(=N)N)NC(=O)[C@H](CCC(N)=O)NC(=O)[C@H](CCCNC(=N)N)NC(=O)[C@H](CCCNC(=N)N)NC(=O)[C@H](CCCCN)NC(=O)[C@H](CCCCN)NC(=O)[C@H](CCCNC(=N)N)NC(=O)CNC(=O)[C@H](Cc1ccc(O)cc1)NC(C)=O)C(=O)N[C@@H](CCC(N)=O)C(=O)N[C@@H]1CCCCCC/C=C/CCC[C@@H](C(=O)N[C@@H](CCCNC(=N)N)C(=O)N[C@@H](CO)C(=O)N[C@H](C(N)=O)C(C)C)NC(=O)[C@H](CCCCN)NC(=O)[C@H]([C@@H](C)CC)NC(=O)[C@H](C(C)C)NC(=O)[C@H](C(C)C)NC(=O)[C@H](CCC(=O)O)NC(=O)[C@H](CC(C)C)NC1=O | inactive | – | – |
| CC[C@H](C)[C@H](NC(=O)[C@H](CC(C)C)NC(=O)[C@H](CCCNC(=N)N)NC(=O)[C@H](CCCNC(=N)N)NC(=O)[C@H](CCCNC(=N)N)NC(=O)[C@H](CCCNC(=N)N)NC(=O)[C@H](CCC(N)=O)NC(=O)[C@H](CCCNC(=N)N)NC(=O)[C@H](CCCNC(=N)N)NC(=O)[C@H](CCCCN)NC(=O)[C@H](CCCCN)NC(=O)[C@H](CCCNC(=N)N)NC(=O)CNC(=O)[C@H](Cc1ccc(O)cc1)NC(C)=O)C(=O)N[C@@H](CO)C(=O)N[C@@H](CCC(=O)O)C(=O)N[C@@H](CC(C)C)C(=O)N[C@@H]1CCCCCC/C=C/CCC[C@@H](C(=O)N[C@@H](C)C(N)=O)NC(=O)[C@H](CCCNC(=N)N)NC(=O)[C@H](CCC(N)=O)NC(=O)[C@H](CCCCN)NC(=O)[C@H](CCC(=O)O)NC(=O)[C@H](CCCNC(=N)N)NC(=O)[C@H](CC(=O)O)NC1=O | – | 5.49 | – |
| CC[C@H](C)[C@H](NC(=O)[C@@H](NC(=O)[C@H](CCCNC(=N)N)NC(=O)[C@H](CCCNC(=N)N)NC(=O)[C@H](CCCNC(=N)N)NC(=O)[C@H](CCCNC(=N)N)NC(=O)[C@H](CCC(N)=O)NC(=O)[C@H](CCCNC(=N)N)NC(=O)[C@H](CCCNC(=N)N)NC(=O)[C@H](CCCCN)NC(=O)[C@H](CCCCN)NC(=O)[C@H](CCCNC(=N)N)NC(=O)CNC(=O)[C@H](Cc1ccc(O)cc1)NC(C)=O)C(C)C)C(=O)N[C@@H](CCC(N)=O)C(=O)N[C@@H]1CCCCCC/C=C/CCC[C@@H](C(=O)N[C@@H](CCCNC(=N)N)C(=O)N[C@@H](CC(=O)O)C(=O)N[C@H](C(N)=O)C(C)C)NC(=O)[C@H](CCCCN)NC(=O)[C@H](CCC(=O)O)NC(=O)[C@H]([C@@H](C)CC)NC(=O)[C@H]([C@@H](C)CC)NC(=O)[C@H](C(C)C)NC(=O)[C@H](CC(C)C)NC1=O | – | – | pIC50 (SK-BR-3 [1]): 4.87; Activity (HEK-293T): Non-Toxic; Activity (SK-BR-3 [2]): Dose-dependent effect |
| CC[C@H](C)[C@H](NC(=O)[C@H](CC(C)C)NC(=O)[C@H](CCCNC(=N)N)NC(=O)[C@H](CCCNC(=N)N)NC(=O)[C@H](CCCNC(=N)N)NC(=O)[C@H](CCCNC(=N)N)NC(=O)[C@H](CCC(N)=O)NC(=O)[C@H](CCCNC(=N)N)NC(=O)[C@H](CCCNC(=N)N)NC(=O)[C@H](CCCCN)NC(=O)[C@H](CCCCN)NC(=O)[C@H](CCCNC(=N)N)NC(=O)CNC(=O)[C@H](Cc1ccc(O)cc1)NC(C)=O)C(=O)N[C@H](C(=O)N[C@@H]1CCCCCC/C=C/CCC[C@@H](C(=O)N[C@@H](CCCNC(=N)N)C(=O)N[C@@H](CCCCN)C(=O)N[C@@H](CCCNC(=N)N)C(N)=O)NC(=O)[C@H](CCCCN)NC(=O)[C@H](CCC(=O)O)NC(=O)[C@H](C(C)C)NC(=O)[C@H](CC(=O)O)NC(=O)[C@H](CCC(=O)O)NC(=O)[C@H](CCC(N)=O)NC1=O)[C@@H](C)CC | – | 3.45 | – |
| CC(=O)O[C@H]1C(=O)[C@@]2(C)[C@H]([C@H](OC(=O)c3ccccc3)[C@]3(O)C[C@H](OC(=O)[C@H](O)[C@@H](NC(=O)c4ccccc4)c4ccccc4)C(C)=C1C3(C)C)[C@]1(OC(C)=O)CO[C@@H]1C[C@@H]2O | – | – | Activity (SK-BR-3 [3]): Active; Activity (SK-BR-3 [4]): Active |
| CC(=O)N[C@@H](Cc1ccc(O)cc1)C(=O)NCC(=O)N[C@@H](CCCNC(=N)N)C(=O)N[C@@H](CCCCN)C(=O)N[C@@H](CCCCN)C(=O)N[C@@H](CCCNC(=N)N)C(=O)N[C@@H](CCCNC(=N)N)C(=O)N[C@@H](CCC(N)=O)C(=O)N[C@@H](CCCNC(=N)N)C(=O)N[C@@H](CCCNC(=N)N)C(=O)N[C@@H](CCCNC(=N)N)C(=O)N[C@@H](CCCNC(=N)N)C(=O)N[C@@H](CC(C)C)C(=O)N[C@@H](CC(C)C)C(=O)N[C@@H](CCC(N)=O)C(=O)N[C@@H]1CCCCCC/C=C/CCC[C@@H](C(=O)N[C@@H](CCCNC(=N)N)C(=O)N[C@@H](CO)C(=O)N[C@H](C(N)=O)C(C)C)NC(=O)[C@H](CCCCN)NC(=O)[C@H](CC(C)C)NC(=O)[C@H](C(C)C)NC(=O)[C@H]([C@@H](C)O)NC(=O)[C@H](CCCCN)NC(=O)[C@H](CC(C)C)NC1=O | inactive | – | – |
| CC[C@H](C)[C@H](NC(=O)[C@H](CC(C)C)NC(=O)[C@H](CCCNC(=N)N)NC(=O)[C@H](CCCNC(=N)N)NC(=O)[C@H](CCCNC(=N)N)NC(=O)[C@H](CCCNC(=N)N)NC(=O)[C@H](CCC(N)=O)NC(=O)[C@H](CCCNC(=N)N)NC(=O)[C@H](CCCNC(=N)N)NC(=O)[C@H](CCCCN)NC(=O)[C@H](CCCCN)NC(=O)[C@H](CCCNC(=N)N)NC(=O)CNC(=O)[C@H](Cc1ccc(O)cc1)NC(C)=O)C(=O)N[C@@H](CCC(N)=O)C(=O)N[C@@H]1CCCCCC/C=C/CCC[C@@H](C(=O)N[C@@H](CCCNC(=N)N)C(=O)N[C@@H](CCCCN)C(=O)N[C@@H](CCCNC(=N)N)C(N)=O)NC(=O)[C@H](CCCCN)NC(=O)[C@H](CCC(=O)O)NC(=O)[C@H](C(C)C)NC(=O)[C@H](CC(=O)O)NC(=O)[C@H](CCC(=O)O)NC(=O)[C@H](CCCNC(=N)N)NC1=O | inactive | – | – |
| CC[C@H](C)[C@H](NC(=O)[C@H](CC(C)C)NC(=O)[C@H](C)NC(=O)[C@H](CCCNC(=N)N)NC(=O)[C@H](CCCNC(=N)N)NC(=O)[C@H](CCCNC(=N)N)NC(=O)[C@H](CCC(N)=O)NC(=O)[C@H](CCCNC(=N)N)NC(=O)[C@H](CCCNC(=N)N)NC(=O)[C@H](CCCCN)NC(=O)[C@H](CCCCN)NC(=O)[C@H](CCCNC(=N)N)NC(=O)CNC(=O)[C@H](Cc1ccc(O)cc1)NC(C)=O)C(=O)N[C@@H](CCC(N)=O)C(=O)N[C@@H]1CCCCCC/C=C/CCC[C@@H](C(=O)N[C@@H](CCCNC(=N)N)C(=O)N[C@@H](CCCCN)C(=O)N[C@@H](CCCNC(=N)N)C(N)=O)NC(=O)[C@H](CCCCN)NC(=O)[C@H](CCC(=O)O)NC(=O)[C@H](C(C)C)NC(=O)[C@H](CC(=O)O)NC(=O)[C@H](CCC(=O)O)NC(=O)[C@H](CCC(N)=O)NC1=O | – | 3.51 | – |
